Experiments:
Format in all cases: cell-based
[1] = test system: p53^+/+ HCT116 colorectal carcinoma cells; assay: Western blotting of p53 pathway proteins in treated p53+/+ HCT116 cells; settings: for p53 expression (Western blot) / survivin expression (Western blot) / p21^Waf1/Cip1 expression (Western blot): p53+/+ HCT116; for p53 expression (Western blot) / p21^Waf1/Cip1 expression (Western blot): 6-24 hours
Protocol: (§1) Cells were collected and centrifuged at 3,000 rpm for 5 minutes at 4° C., and washed in PBS (pH 7.2). The cell pellet was solubilized in lysis buffer (20 mM Tris, pH 7.2, 0.5% deoxycholate, 1% Triton X-100, 0.1% SDS, 150 mM NaCl, 1 mM EDTA) containing proteases inhibitors (Complete, Roche Applied Science) for 30 min at 4° C. The lysate was cleared by centrifugation for 15 minutes, and protein concentration was evaluated using a Bio-Rad protein assay system (Bio-Rad Laboratories, Hercules, Calif.). Samples (30 μg) were separated by SDS-polyacrylamide gel, transferred to nylon membranes (Millipore), and incubated with primary antibodies to p53 (Oncogene Research Products, FL-393, Santa Cruz Biotechnology, Inc., Santa Cruz, Calif.), p21^Waf1/Cip1 (Oncogene Research Products), XIAP (BD Transduction Laboratories), survivin (NOVUS Biologicals, Littleton, Colo.), MDM2 (Santa Cruz Biotechnology, Inc.), p14^ARF (NOVUS Biologicals), caspase-3 (Cell Signaling Technology), cleaved caspase-3 (Cell Signaling Technology), β-catenin (BD Transduction Laboratories), cyclin B1 (GNS1, Santa Cruz Biotechnology, Inc.), GSK3β (Santa Cruz Biotechnology, Inc.), or β-sactin (Sigma) with detection of reactive bands by chemiluminescence (Amersham). Cells were analyzed for hypodiploid DNA content by propidium iodide staining and flow cytometry as described in O'Connor et al., Cancer Cell, 2:43-54 (2002). Chemicals whose source is not explicitly listed were or can be obtained from Sigma.
To explore the link between GSK3β inhibition and p53 modulation, in vivo, HCT116 cells were treated with Li, TDZD or SB216763, and analyzed cells by Western blotting. p53^+/+ or p53^−/− HCT116 cells were incubated with the following GSK3β inhibitors, LiCl (Sigma, 30 mM), thiadiazolidinone-8 (TDZD) (Calbiochem, 0-20 μM), or SB216763 (Sigma, 20 μM), cells were harvested after 6-24 hours, and samples were analyzed by Western blotting as described in Example 2. […]

GSK3β = GSK3β (Homo sapiens, UniProt P49841); assay: Immunoprecipitation and GSK3β kinase assay using glycogen synthase-derived peptide substrate, from treated HCT116 cells; design: harvested after 6 or 12 hours, and immunoprecipitated with an antibody to GSK3β; endogenous in cells; host or cells: HCT116 (p53+/+) colorectal carcinoma cells; settings: p53+/+ HCT116 cells; Purvalanol A 10 μM, LiCl 30 mM, TDZD 20 μM; 6 or 12 hours
Protocol: Immune complexes were mixed with a synthetic peptide containing a GSK3β phosphorylation site derived from the sequence of glycogen synthase (Upstate Biotechnology) in the presence of 10 μCi of γ-^32P-ATP (Amersham Corp., Piscataway, N.J.), after 30 min incubation at 30° C., the reaction mixtures were centrifuged briefly, and 15 μl of the supernatant was spotted onto P81 phosphocellulose paper (Whatman Inc., Clifton, N.J.). The membrane was washed three times with 175 mM phosphoric acid, rinsed once in acetone, and dried. Changes in peptide phosphorylation under the various conditions tested were determined by scintillation counting. Data were analyzed using the unpaired t test on a Graphpad Prism software package for Windows (Graphpad Inc., San Diego, Calif.). A P value of 0.05 was considered as statistically significant.

p53^+/+ HCT116 cells = assay: Multiparametric flow cytometry of caspase-3/7 (DEVDase) activity and cell viability, p53+/+ HCT116; settings: TDZD 20 μM, 48 hours; for caspase-dependent apoptosis (DEVDase activity and plasma membrane integrity): p53+/+ HCT116, LiCl 30 mM
Protocol: (§2) The functional consequences of GSK3β inhibition were explored. Source and maintenance of p53^+/+ and p53^−/− HCT116 colorectal carcinoma cells were as described in Example 2. […] Alternatively, cells were incubated with GSK3β inhibitors LiCl (30 mM) or TDZD (20 μM), harvested after 48 hours and analyzed for cell viability (propidium iodide, red channel) and active caspase-3/7 activity (green channel, […]®, from Chemicon International Inc., Temecula, Calif.), by multiparametric flow cytometry as reported previously in Kim et al., Lancet, 362:205-209 (2003).
(§3) To clarify the role of GSK3β inhibition in p53-dependent apoptosis, HCT116 cells were treated with TDZD or LiCl and monitored changes in cell death. […] See the two center column panels of FIG. 6C. […] See right hand column panels of FIG. 6C.

p53^−/− HCT116 cells = assay: Multiparametric flow cytometry of caspase-3/7 (DEVDase) activity and cell viability, p53-/- HCT116; settings: TDZD 20 μM, 48 hours; for apoptosis induction (DEVDase activity and plasma membrane integrity): p53-/- HCT116, LiCl 30 mM
Protocol: as §2, §3

[2] = test system: p53^−/− HCT116 colorectal carcinoma cells; assay: Western blotting of p53 pathway proteins in treated p53-/- HCT116 cells
Protocol: as §1
To explore the link between GSK3β inhibition and p53 modulation, in vivo, HCT116 cells were treated with Li, TDZD or SB216763, and analyzed cells by Western blotting. p53^+/+ or p53^−/− HCT116 cells were incubated with the following GSK3β inhibitors, LiCl (Sigma, 30 mM), thiadiazolidinone-8 (TDZD) (Calbiochem, 0-20 μM), or SB216763 (Sigma, 20 μM), cells were harvested after 6-24 hours, and samples were analyzed by Western blotting as described in Example 2.

Chain of GSK3β (P49841 whole entry): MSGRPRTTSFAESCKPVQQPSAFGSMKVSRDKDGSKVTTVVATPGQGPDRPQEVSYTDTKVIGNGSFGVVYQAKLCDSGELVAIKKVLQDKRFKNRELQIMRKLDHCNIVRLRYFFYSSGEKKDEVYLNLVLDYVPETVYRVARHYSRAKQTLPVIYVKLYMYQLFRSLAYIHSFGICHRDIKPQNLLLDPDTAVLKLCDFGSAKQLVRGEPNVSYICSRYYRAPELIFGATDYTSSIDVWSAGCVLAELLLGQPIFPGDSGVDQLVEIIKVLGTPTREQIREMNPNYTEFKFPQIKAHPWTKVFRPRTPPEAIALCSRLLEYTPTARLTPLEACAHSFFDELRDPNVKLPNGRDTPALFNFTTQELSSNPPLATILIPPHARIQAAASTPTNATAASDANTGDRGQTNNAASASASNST

| Structure (SMILES) | p53 expression (Western blot) [1] | GSK3β kinase activity (peptide phosphorylation) (GSK3β) | caspase-dependent apoptosis (DEVDase activity and plasma membrane integrity) (p53^+/+ HCT116 cells) | increase in fraction of apoptotic cells (p53^+/+ HCT116 cells; p53+/+ cultures) | apoptosis induction (DEVDase activity and plasma membrane integrity) (p53^−/− HCT116 cells) | increase in fraction of apoptotic cells (p53^−/− HCT116 cells; p53-/- cells) | survivin expression (Western blot) [2] | MDM2 expression (Western blot) ([1]; HCT116 cells) | p14^ARF expression (Western blot) ([1]; HCT116 cells, relative to vehicle) | survivin expression (Western blot) [1] | p21^Waf1/Cip1 expression (Western blot) [1] |
| --- | --- | --- | --- | --- | --- | --- | --- | --- | --- | --- | --- |
| O=C1Cc2c([nH]c3ccc([N+](=O)[O-])cc23)-c2ccccc2N1 [alsterpaullone] | elevation of p53 levels | – | – | – | – | – | – | – | – | – | – |
| Cn1sc(=O)n(Cc2ccccc2)c1=O [TDZD, 4-Benzyl-2-methyl-1,2,4-thiadiazolidine-3,5-dione] | strong induction of p53 | suppressed GSK3β activity | reproduced caspase-dependent apoptosis | ~4.5 fold | considerably less effective at inducing apoptosis | 1.7 fold | no changes in survivin expression | reduced expression | upregulation of p14^ARF | time-dependent downregulation of survivin | prominent upregulation |
| Cn1cc(C2=C(c3ccc(Cl)cc3Cl)C(=O)NC2=O)c2ccccc21 [SB216763] | strong induction of p53 | – | – | – | – | – | – | – | – | – | prominent upregulation |
| [Cl-].[Li+] [LiCl, lithium chloride] | elevation of p53 levels only at 24 hours after treatment | suppressed GSK3β activity | reproduced caspase-dependent apoptosis | – | considerably less effective at inducing apoptosis | – | – | – | – | time-dependent downregulation of survivin | – |

— US20060204980A1, “Colorectal cancer therapies” (priority 2004, published 2006)
